System: HBV
Test: Viral load production from HepAD38 cells, qPCR of the HBV core sequence in supernatant
Assay type: cell-based
Details: HepAD38 cells, 5 days, HBV DNA in supernatant by qPCR; Table 1 ranges; read-out: Activity (viral load lowering EC50)
Description: HepAD38 cells grown in a T-150 flask (Corning, cat#: 430825) with Growth Medium (DMEM/F12 (1:1) (Hyclone, cat#: SH30023.02), 1X Pen/Strep (Invitrogen, cat#: 15140-122), 10% FBS (Tissue Culture Biologics, cat#: 101), 250 µg/mL G418 (Alfa Aesar, cat#: J62671), 1 µg/mL Tetracycline (Teknova, cat#: T3320)) were detached with 0.25% trypsin-EDTA (Invitrogen, cat#: 25200-056). Tetracycline-free treatment medium (15 mL DMEM/F12 (1:1) 1× Pen/step, with 2% FBS, Tet-system approved (Clontech, cat#: 631106) were then added to mix, transferred into a 50 ml conical tube (Falcon, cat#: 21008-918,) and spun at 1300 rpm for 5 min. Pelleted cells were then re-suspended/washed with 50 mL of 1X DPBS (Invitrogen, cat#: 14190-136) 2 times and 50 mL treatment medium twice. HepAD38 cells were then re-suspended with 10 mL of treatment medium, syringed and counted. Wells of 96-well clear bottom TC plate (Corning, cat#: 3904,) were seeded at 50.000 cells/well in 180 µL of treatment medium, and 20 µL of either 10% DMSO (Sigma, cat#: D4540) as controls or a 10X solution of test compounds in 10% DMSO in treatment media was added for a final compound concentration starting at 10 µM, and plates were incubated in 5% CO2 incubator at 37° C. for 5 days.
Subsequently viral load production was assayed by quantitative PCR (qPCR) of the HBV core sequence. PCR reaction mixture containing forward primers HBV-f 5′-CTGTGCCTTGGGTGGCTTT-3′ (IDT DNA), Reverse primers HBV-r 5′-[…]-3′ (IDT DNA), Fluorescent TaqMan^tm Probes HBV-probe 5′-FAM/AGCTCCAAA/ZEN/[…]/3IABkFQ-3′ (IDT DNA), 10 µL/well of PerfeCTa® qPCR ToughMix® (Quanta Biosciences, Cat#: 95114-05 K), and 6 µL/well of DEPC water (Alfa Aesar, cat#: J62087) was prepared. Four µL of supernatant was added to 16 µL of the reaction mixture in a qPCR plate (Applied Biosytems, Cat#: 4309849), sealed with a film (Applied Biosystems, Cat#: 4311971), centrifuged for a few seconds, and subsequently run on an Applied Biosystems VIIA7. The PCR mixture was incubated at 45° C. for 5 min, then 95° C. for 10 min, followed by 40 cycles of 10 seconds at 95° C. and 20 seconds at 60° C. Viral load was quantified against known HBV DNA standards by using ViiA™ 7 Software. Viral load in the supernatant from wells with treated cells were compared against viral load in supernatant from DMSO control wells (≥ 3 per plate). Cell viability assay was performed with CellTiter-Glo Luminescent Cell Viability Assay (Promega, cat#: G7573) with modification. Mixed appropriate amount of CellTiter-Glo (CTG) 1X DPBS in a 1:1 ratio, added 100 uL of the mixture to each well followed completely removal of all supernatant in each well without touching cell surface. Incubated the plate at room temperature for 10 min on an orbital shaker, and then read the plate with a plate reader (TECAN M1000 or Envision). EC50 or CC50 values were calculated through curve-fitting of the four-parameter nonlinear-logistic-regression model (GraphPad Prism or Dotmatics). CC50 values were all >10 µM.

| SMILES | EC50 |
| --- | --- |
| Cn1nc(C2CC3CC(O)(CNc4ncc(C(F)F)cn4)CC3C2)c(C(=O)Nc2ccc(F)c(Cl)c2)c1N (single isomer, unassigned) [Example 202A] | 10 to 50 nM |
| Cn1nc(C2CC3CC(O)(CNc4ncc(C(F)F)cn4)CC3C2)c(C(=O)Nc2ccc(F)c(Cl)c2)c1N (single isomer, unassigned) [Example 202B] | 50 to 500 nM |
| Cn1nc(C(F)(F)F)cc1NCC1(O)CC2CC(c3nn(C)c(N)c3C(=O)Nc3ccc(F)c(Cl)c3)CC2C1 (single isomer, unassigned) [Example 203B] | 10 to 50 nM |
| Cn1nc(C2CC3CC(O)(CNc4cc(N)ncn4)CC3C2)c(C(=O)Nc2ccc(F)c(Cl)c2)c1N (single isomer, unassigned) [Example 205A] | < 10 nM |
| Cn1nc(C2CC3CC(O)(CNc4cc(N)ncn4)CC3C2)c(C(=O)Nc2ccc(F)c(Cl)c2)c1N (single isomer, unassigned) [Example 205B] | 50 to 500 nM |

Same assay, conditions: HepAD38 cells, 5 days, HBV DNA in supernatant by qPCR; Table 2 ranges; read-out: VL HepAD38 EC50 range

| SMILES | EC50 |
| --- | --- |
| Cn1nc(C2CC3CC(O)C(c4ccccc4)C3C2)c(C(=O)Nc2ccc(F)c(Cl)c2)c1N (single isomer, unassigned) [Example 142, 5-Amino-N-(3-chloro-4-fluorophenyl)-3-(5-hydroxy-4-phenyloctahydropentalen-2-yl)-1-methyl-1H-pyrazole-4-carboxamide] | < 100 nM |
| Cn1nc(C2CC3CC(c4ccccc4)C(O)C3C2)c(C(=O)Nc2ccc(F)c(Cl)c2)c1N (single isomer, unassigned) [Example 143, 5-Amino-N-(3-chloro-4-fluorophenyl)-3-(4-hydroxy-5-phenyloctahydropentalen-2-yl)-1-methyl-1H-pyrazole-4-carboxamide] | < 100 nM |
| Cn1nc(C2CC3CC(c4ccccc4)C(O)C3C2)c(C(=O)Nc2ccc(F)c(Cl)c2)c1N (single isomer, unassigned) [Example 144, 5-Amino-N-(3-chloro-4-fluorophenyl)-3-(4-hydroxy-5-phenyloctahydropentalen-2-yl)-1-methyl-1H-pyrazole-4-carboxamide] | < 100 nM |

Same assay, conditions: Hepatitis B virus, HePAD38, 120 h, HepAD38 cells, 5 days, HBV DNA in supernatant by qPCR; Table 1 ranges; read-out: Activity (viral load lowering EC50)

| SMILES | EC50 |
| --- | --- |
| Cn1nc(C(F)(F)F)cc1NCC1(O)CC2CC(c3nn(C)c(N)c3C(=O)Nc3ccc(F)c(Cl)c3)CC2C1 (single isomer, unassigned) [Example 203A] | < 10 nM |
| Cn1nc([N+](=O)[O-])cc1C1(O)CC2CC(c3nn(C)c(N)c3C(=O)Nc3ccc(F)c(Cl)c3)CC2C1 [Compd. 4-2, 5-amino-N-(3-chloro-4-fluorophenyl)-3-((2 s,3aR,5r,6aS)-5-hydroxy-5-(1-methyl-3-nitro-1H-pyrazol-5-yl)octahydropentalen-2-yl)-1-methyl-1H-pyrazole-4-carboxamide] | < 10 nM |
| Cn1nc(C2CC3CC(O)(c4cn(COP(=O)(OC(C)(C)C)OC(C)(C)C)nc4C(F)(F)F)CC3C2)c(C(=O)Nc2ccc(F)c(Cl)c2)c1N (centres unmarked) [Compd. 6-1, (4-(5-(5-amino-4-((3-chloro-4-fluorophenyl)carbamoyl)-1-methyl-1H-pyrazol-3-yl)-2-hydroxyoctahydropentalen-2-yl)-3-(trifluoromethyl)-1H-pyrazol-1-yl)methyl di-tert-butyl phosphate] | 10 to 50 nM |
| Cn1nc(C2CC3CC(O)(c4ccccc4)CC3C2)c(C(=O)Nc2ccc(F)c(Cl)c2)c1N (centres unmarked) [Example 1, 5-Amino-N-(3-chloro-4-fluorophenyl)-3-(5-hydroxy-5-phenyl-octahydropentalen-2-yl)-1-methyl-1H-pyrazole-4-carboxamide] | < 10 nM |
| C=CCC1(O)CC2CC(c3nn(C)c(N)c3C(=O)Nc3ccc(F)c(Cl)c3)CC2C1 (centres unmarked) [Example 2, 3-(5-Allyl-5-hydroxyoctahydropentalen-2-yl)-5-amino-N-(3-chloro-4-fluorophenyl)-1-methyl-1H-pyrazole-4-carboxamide] | < 10 nM |
| Cn1nc(C2CC3CC(O)(c4ccc(Cl)cc4)CC3C2)c(C(=O)Nc2ccc(F)c(Cl)c2)c1N (centres unmarked) [Example 3, 5-Amino-N-(3-chloro-4-fluorophenyl)-3-(5-(4-chlorophenyl)-5-hydroxyoctahydropentalen-2-yl)-1-methyl-1H-pyrazole-4-carboxamide] | 10 to 50 nM |
| Cn1nc(C2CC3CC(O)(c4ccc(F)cc4)CC3C2)c(C(=O)Nc2ccc(F)c(Cl)c2)c1N (centres unmarked) [Example 4, 5-Amino-N-(3-chloro-4-fluorophenyl)-3-(5-(4-fluorophenyl)-5-hydroxyoctahydropentalen-2-yl)-1-methyl-1H-pyrazole-4-carboxamide] | 10 to 50 nM |
| COc1ccc(C2(O)CC3CC(c4nn(C)c(N)c4C(=O)Nc4ccc(F)c(Cl)c4)CC3C2)cc1 (centres unmarked) [Example 5, 5-Amino-N-(3-chloro-4-fluorophenyl)-3-(5-hydroxy-5-(4-methoxyphenyl)octahydropentalen-2-yl)-1-methyl-1H-pyrazole-4-carboxamide] | < 10 nM |
| Cc1ccc(C2(O)CC3CC(c4nn(C)c(N)c4C(=O)Nc4ccc(F)c(Cl)c4)CC3C2)cc1 (centres unmarked) [Example 6, 5-Amino-N-(3-chloro-4-fluorophenyl)-3-(5-hydroxy-5-(p-tolyl)octahydropentalen-2-yl)-1-methyl-1H-pyrazole-4-carboxamide] | < 10 nM |
| Cc1ccc(C2(O)CC3CC(c4nn(C)c(N)c4C(=O)Nc4ccc(F)c(C#N)c4)CC3C2)cc1 (centres unmarked) [Example 7, 5-Amino-N-(3-cyano-4-fluorophenyl)-3-(5-hydroxy-5-(p-tolyl)octahydropentalen-2-yl)-1-methyl-1H-pyrazole-4-carboxamide] | < 10 nM |
| Cc1ccccc1C1(O)CC2CC(c3nn(C)c(N)c3C(=O)Nc3ccc(F)c(Cl)c3)CC2C1 (centres unmarked) [Example 8, 5-Amino-N-(3-chloro-4-fluorophenyl)-3-(5-hydroxy-5-(o-tolyl)octahydropentalen-2-yl)-1-methyl-1H-pyrazole-4-carboxamide] | < 10 nM |
| Cn1nc(C2CC3CC(O)(c4ccc(F)cc4)CC3C2)c(C(=O)Nc2ccc(F)c(C#N)c2)c1N (centres unmarked) [Example 9, 5-Amino-N-(3-cyano-4-fluorophenyl)-3-(5-(4-fluorophenyl)-5-hydroxyoctahydropentalen-2-yl)-1-methyl-1H-pyrazole-4-carboxamide] | < 10 nM |

Same assay, conditions: Hepatitis B virus, HePAD38, 120 h, HepAD38 cells, 5 days, HBV DNA in supernatant by qPCR; Table 2 ranges; read-out: VL HepAD38 EC50 range

| SMILES | EC50 |
| --- | --- |
| Cn1nc(C2CC3CC(O)C(c4ccccc4)C3C2)c(C(=O)Nc2ccc(F)c(Cl)c2)c1N (single isomer, unassigned) [Example 141, 5-Amino-N-(3-chloro-4-fluorophenyl)-3-(5-hydroxy-4-phenyloctahydropentalen-2-yl)-1-methyl-1H-pyrazole-4-carboxamide] | < 100 nM |
| Cn1nc(C2CC3CC(c4ccccc4)C(O)C3C2)c(C(=O)Nc2ccc(F)c(Cl)c2)c1N (single isomer, unassigned) [Example 145, 5-Amino-N-(3-chloro-4-fluorophenyl)-3-(4-hydroxy-5-phenyloctahydropentalen-2-yl)-1-methyl-1H-pyrazole-4-carboxamide] | < 100 nM |

Same assay, conditions: Hepatitis B virus, HePAD38, 120 h, read-out: Activity (viral load lowering EC50), HepAD38 cells, 5 days, HBV DNA in supernatant by qPCR; Table 1 ranges

| SMILES | EC50 |
| --- | --- |
| Cn1nc(C2CC3CC(O)(c4cn(COP(=O)(O)OC(C)(C)C)nc4C(F)(F)F)CC3C2)c(C(=O)Nc2ccc(F)c(Cl)c2)c1N (centres unmarked) [Cpmpd. 6-2, (4-(5-(5-amino-4-((3-chloro-4-fluorophenyl)carbamoyl)-1-methyl-1H-pyrazol-3-yl)-2-hydroxyoctahydropentalen-2-yl)-3-(trifluoromethyl)-1H-pyrazol-1-yl)methyl tert-butyl hydrogen phosphate] | 10 to 50 nM |
